Experimental data: ChEMBL document CHEMBL3085680, “Design and synthesis of P1-P3 macrocyclic tertiary-alcohol-comprising HIV-1 protease inhibitors” (J Med Chem, 2013)

Assays:
[1] = test system: Human immunodeficiency virus; assay: Antiviral activity against HIV infected in human MT4 cells assessed as inhibition of virus-induced cytopathogenic effect by XTT assay; format: functional, organism-based; conditions: Human immunodeficiency virus 1, MT4
Protease = Protease (Human immunodeficiency virus 1, UniProt Q9YQ12); assay: Inhibition of HIV1 protease expressed in Escherichia coli by fluorometric assay
[2] = Cytotoxicity against human MT4 cells after 5 days by XTT assay; format: cell-based
[3] = Permeability of the compound across human Caco2 cells; format: ADME, cell-based; conditions: Caco-2, read-out: permeability

Sequence of Protease (Q9YQ12 whole entry): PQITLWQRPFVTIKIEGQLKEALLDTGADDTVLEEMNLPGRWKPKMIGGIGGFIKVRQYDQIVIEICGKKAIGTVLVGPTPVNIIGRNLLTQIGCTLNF

| SMILES | EC50 [1] [µM] | Ki (Protease) [µM] | CC50 at 120 h [2] [µM] | Papp [3] [×10⁻⁶ cm/s] |
| --- | --- | --- | --- | --- |
| C=CCNC(=O)[C@@H](NC(=O)[C@@](O)(CCCN(Cc1ccc(Br)cc1)NC(=O)[C@@H](NC(=O)OC)C(C)(C)C)Cc1ccc(Br)cc1)C(C)C | 5.8 | 0.011 | 22 |  |
| C=CCNC(=O)[C@@H](NC(=O)[C@@](O)(CCCN(Cc1ccc(Br)cc1)NC(=O)[C@@H](NC(=O)OC)C(C)(C)C)Cc1ccc(Br)cc1)C(C)(C)C | 2.9 | 0.01 | 29 |  |
| C=CCNC(=O)[C@@H](NC(=O)[C@@](O)(CCCN(Cc1ccc(Br)cc1)NC(=O)[C@@H](NC(=O)OC)C(C)(C)C)Cc1ccc(C=C)cc1)C(C)C | 6.9 | 0.015 | 25 |  |
| C=CCNC(=O)[C@@H](NC(=O)[C@@](O)(CCCN(Cc1ccc(Br)cc1)NC(=O)[C@@H](NC(=O)OC)C(C)(C)C)Cc1ccc(C=C)cc1)C(C)(C)C | 5.3 | 0.016 | 44 | 45 |
| C=CCNC(=O)[C@@H](NC(=O)[C@@](O)(CCCN(Cc1ccc(Br)cc1)NC(=O)[C@@H](NC(=O)OC)C(C)(C)C)Cc1ccc(CC=C)cc1)C(C)C | 6 | 0.03 | 24 | 44 |
| C=CCNC(=O)[C@@H](NC(=O)[C@@](O)(CCCN(Cc1ccc(Br)cc1)NC(=O)[C@@H](NC(=O)OC)C(C)(C)C)Cc1ccc(CC=C)cc1)C(C)(C)C | 7.5 | 0.037 | > 50 | 44 |
| C=CCNC(=O)[C@@H](NC(=O)[C@](O)(CCCN(Cc1ccc(Br)cc1)NC(=O)[C@@H](NC(=O)OC)C(C)(C)C)Cc1ccc(Br)cc1)C(C)C | > 50 | 1 | 4.5 |  |
| C=CCNC(=O)[C@@H](NC(=O)[C@](O)(CCCN(Cc1ccc(Br)cc1)NC(=O)[C@@H](NC(=O)OC)C(C)(C)C)Cc1ccc(Br)cc1)C(C)(C)C | > 50 | 0.98 | 21 |  |
| C=CCNC(=O)[C@@H](NC(=O)[C@](O)(CCCN(Cc1ccc(Br)cc1)NC(=O)[C@@H](NC(=O)OC)C(C)(C)C)Cc1ccc(C=C)cc1)C(C)C | > 50 | 0.78 | 5.8 |  |
| C=CCNC(=O)[C@@H](NC(=O)[C@](O)(CCCN(Cc1ccc(Br)cc1)NC(=O)[C@@H](NC(=O)OC)C(C)(C)C)Cc1ccc(C=C)cc1)C(C)(C)C | > 50 | 0.72 | 25 |  |
| COC(=O)N[C@H](C(=O)NN(CCC[C@@]1(O)Cc2ccc(cc2)/C=C\CNC(=O)[C@H](C(C)(C)C)NC1=O)Cc1ccc(Br)cc1)C(C)(C)C | 3.3 | 0.005 | 40 | 31 |
| COC(=O)N[C@H](C(=O)NN(CCC[C@@]1(O)Cc2ccc(cc2)C/C=C\CNC(=O)[C@H](C(C)C)NC1=O)Cc1ccc(Br)cc1)C(C)(C)C | 0.37 | 0.0031 | > 50 | 9 |
| COC(=O)N[C@H](C(=O)NN(CCC[C@@]1(O)Cc2ccc(cc2)C/C=C\CNC(=O)[C@H](C(C)(C)C)NC1=O)Cc1ccc(Br)cc1)C(C)(C)C | 1 | 0.0042 | 30 | 10 |
| CNC(=O)[C@@H](NC(=O)[C@@](O)(CCCN(Cc1ccc(Br)cc1)NC(=O)[C@@H](NC(=O)OC)C(C)(C)C)Cc1ccccc1)C(C)C | 2.1 |  | > 10 |  |
